Laboratory results taken from article PMC4841536, “Characterization of the Anti-HCV Activities of the New Cyclophilin Inhibitor STG-175” (PLoS ONE, 2016).
Read-outs that look alike come from different tables or passages of the source.

Tests used:
[1] = alamarBlue cytotoxicity (CC50), GT2a replicon cell line; details: human
Protocol: (§1) The anti-HCV activity of STG-175 was conducted using a panel of luciferase reporter replicon cell lines including GT1a, GT1b, GT2a, GT3a and GT4a as we described previously. The GT1a subgenomic renilla luciferase reporter replicon H77 RLucP (7) was supplied by Dr. Delaney. The GT1b subgenomic firefly luciferase reporter replicon pFK-I389/NS3-3’ [29] was supplied by Dr. Bartenschlager. The GT1B subgenomic NS3, NS5A and NS5B mutants were created via homologous recombination using the In-Fusion HD Cloning kit (Clontech) as we described previously. The GT2a genomic luciferase reporter replicon Luc-Neo-JFH-1 was generated as previously. The plasmid pFK-Luc-JFH1 was supplied from Drs. […] The CellTiter-Fluor™ Cell Viability Assay is a non-lytic fluorescence assay, which measures the number of live cells. […] Luciferase activity was determined using the Luciferase Assay System (Promega) in a Berthold luminometer. […] Viable cells continuously convert resazurin to resorufin, increasing the overall fluorescence and color of the media surrounding cells.
(§2) Fig 2 Anti-HCV activities of STG-175 among GTs. […] Luciferase activity was determined using the Luciferase Assay System in a Berthold luminometer. […] Data are expressed as mean of relative light units and calculated EC50s are presented. […]

GT2a replicon cell line = assay: as above; details: GT2a replicon cell line
Protocol: as §1, §2

[2] = tested on: D320E NS5A Con1 GT1b replicon; assay: microbe, parasite or virus in culture; format: cell-based, hepatitis C virus; details: for EC50: Hepatitis C virus, GT1B
Source text: The GT1b subgenomic firefly luciferase reporter replicon pFK-I389/NS3–3 was provided by R. Bartenschlager. The GT1B subgenomic NS3, NS5A and NS5B mutants were created via homologous recombination using the In-Fusion HD Cloning kit (Clontech) as we described previously. […] The in vitro transcription of wild-type and mutant Con1 RNA was accomplished using the T7 MEGAscript kit (Ambion) by following the manufacturer’s instructions. In vitro-transcribed RNAs were introduced into Huh7.5.1 cells by electroporation. Trypsinized cells were washed twice and resuspended in phosphate-buffered saline (PBS) (calcium-free and magnesium-free) at 1x 10^7 cells per ml. Ten micrograms of RNA for each mutant was mixed with 0.4 mL of cells in a 4-mm cuvette, and a Bio-Rad Gene Pulser system was used to deliver a single pulse at 0.27 kV, 100 ohms, and 960 μF. Cells were then plated in 12-well dishes. RNA transfection efficiency and HCV subgenomic replication were assessed by reverse transcription-quantitative PCR (RT-qPCR) and presented as genome equivalents (GE) per microgram of total RNA as described previously. We measured by RT-qPCR the replication of wild-type, STG-175-, NS5Ai-, NS3i- and NS5Bi-resistant mutants in the presence of increasing concentrations of SGT-175, daclatasvir, telaprevir, boceprevir and sofosbuvir over a period of 8 days.
D320E and D320E/Y321N NS5A substitutions were introduced into wild-type Con1 GT1 replicon as we described previously. Con1-NS5A-D320E, and Con1-NS5A-D320E/Y321N were generated using the following forward and reverse phosphorylated (p) primer sets, respectively: (p)[…] and (p)[…], and (p)[…] and (p)[…]. PCR products were circularized with Quick T4 DNA ligase (NEB) for 5 min and transformed into NEB 10-beta competent cells. The NS5A gene was sequenced to confirm the introduced substitutions.
Fig 3 Replicon clearance, replication rebound and resistance analyses. […] Then drugs were removed to allow viral replication rebound to occur. At each passage, samples of cells were collected, RNA extracted and analyzed by RT-PCR for HCV RNA levels. B. Emergence of resistance: Con1 replicon Huh-7 cells were passaged 22 times in the absence or presence of STG-175 or selected DAAs. At each passage, sample of cells were collected, RNA extracted and analyzed by RT-PCR for HCV RNA levels. C. […] Data are expressed as number of HCV RNA copies per cell. […] Data are expressed as mean of relative light units and calculated EC50s are presented. […] E. Degree of resistance of D320E and Y321N Con1 variants: Left panel. Wild-type (WT), D320E and D320/Y321N NS5A Con1 RNA were electroporated into Huh7.5.1 cells and replication monitored over 8 days by quantifying the levels of intracellular HCV RNA. Right panel. Same as just above except that increasing concentrations of STG-175 were added at the time of the electroporation. […] STG-175 is taken as the substance from the printed x-axis title 'STG-175 in Log nM'.
To determine whether the D320E and Y321N substitutions truly render HCV resistant to STG-175, they were introduced into wild-type Con1 replicon as we described previously. Introduction of the substitutions was verified by sequencing.

CC=CCC(C)C(O)C1C(=O)NC(CC)C(=O)N(C)C(CSCCCCO)C(=O)N(C)C(CC(C)(C)O)C(=O)NC(C(C)C)C(=O)N(C)C(CC(C)C)C(=O)NC(C)C(=O)NC(C)C(=O)N(C)C(CC(C)C)C(=O)N(C)C(CC(C)C)C(=O)N(C)C(C(C)C)C(=O)N1C (stereo not shown) [STG-175]
CC50 at 72 h [1]: > 10000 nM | cell viability toward increasing doses (alamarBlue) (GT2a replicon cell line): lack of cellular cytotoxicity | EC50 ([2]; Huh-7.5.1, 144 h, read-out: EC50, D320E replicon): 61.6 nM | EC50 ([2]; Huh-7.5.1, 192 h, read-out: EC50, D320E replicon): 83.2 nM | EC50 ([2]; Huh-7.5.1, 192 h, read-out: EC50 D320E NS5A): 62.8 nM | fold more resistant than wild-type replicon, D320E ([2]; day 6): 1.7 fold | fold more resistant than wild-type replicon, D320E ([2]; day 8): 2.4 fold
